Results on 25 molecules are retold here after patent publication US20240316047A1, “INHIBITORS OF RNA HELICASE DHX9 AND USES THEREOF” (ACCENT THERAPEUTICS, INC., priority 2022, published 2024).

Each structure is given as a SMILES string.

For the first test, the target named is Human recombinant DHX9 protein (Homo sapiens (Human), UniProt Q08211). The test can be described thus: DHX9 ATPase assay (ADP-Glo). Format: biochemical.
Chain of Human recombinant DHX9 protein (Q08211 whole entry): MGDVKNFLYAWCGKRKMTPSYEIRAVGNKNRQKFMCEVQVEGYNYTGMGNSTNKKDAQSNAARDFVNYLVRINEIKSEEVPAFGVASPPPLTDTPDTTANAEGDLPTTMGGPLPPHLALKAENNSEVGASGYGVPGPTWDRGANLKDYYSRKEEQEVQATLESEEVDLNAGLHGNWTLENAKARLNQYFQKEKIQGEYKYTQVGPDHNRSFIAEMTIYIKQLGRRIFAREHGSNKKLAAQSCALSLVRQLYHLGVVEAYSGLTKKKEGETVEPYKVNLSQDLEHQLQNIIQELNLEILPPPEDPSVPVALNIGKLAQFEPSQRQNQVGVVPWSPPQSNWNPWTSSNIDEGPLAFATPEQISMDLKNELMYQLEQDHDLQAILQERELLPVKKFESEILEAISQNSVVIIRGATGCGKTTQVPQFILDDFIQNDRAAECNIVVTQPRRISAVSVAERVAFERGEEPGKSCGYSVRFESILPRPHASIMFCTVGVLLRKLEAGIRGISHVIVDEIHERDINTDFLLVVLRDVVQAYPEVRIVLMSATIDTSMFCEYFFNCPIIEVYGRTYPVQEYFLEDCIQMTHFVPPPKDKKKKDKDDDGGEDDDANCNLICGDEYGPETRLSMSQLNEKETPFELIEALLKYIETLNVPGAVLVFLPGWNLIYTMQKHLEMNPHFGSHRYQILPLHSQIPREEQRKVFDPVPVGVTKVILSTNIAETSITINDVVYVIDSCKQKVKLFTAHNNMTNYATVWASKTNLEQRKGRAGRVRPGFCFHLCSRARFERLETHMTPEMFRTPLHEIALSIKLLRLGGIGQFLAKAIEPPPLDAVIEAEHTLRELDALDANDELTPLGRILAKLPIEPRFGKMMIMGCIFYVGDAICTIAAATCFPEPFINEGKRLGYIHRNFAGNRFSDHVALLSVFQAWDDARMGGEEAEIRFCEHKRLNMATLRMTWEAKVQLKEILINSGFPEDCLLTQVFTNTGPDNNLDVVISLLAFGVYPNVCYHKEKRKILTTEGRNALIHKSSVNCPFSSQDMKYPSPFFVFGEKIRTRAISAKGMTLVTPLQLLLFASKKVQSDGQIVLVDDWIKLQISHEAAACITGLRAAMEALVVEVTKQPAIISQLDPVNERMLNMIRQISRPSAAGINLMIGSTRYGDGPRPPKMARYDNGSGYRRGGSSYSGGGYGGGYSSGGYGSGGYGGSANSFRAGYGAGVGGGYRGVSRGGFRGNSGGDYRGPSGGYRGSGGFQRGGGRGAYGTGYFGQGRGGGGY
Conditions: not given
A general note: ADP-Glo first removes unused ATP, then detects ADP through luciferase.
Turning to `Cc1cc(C(=O)Nc2cc(Cl)cc(NS(C)(=O)=O)c2)cn1-c1ccc(N2CCC2)cn1` [Example 397], the “DHX9 Biochemical Max Inhibition” value is recorded as 77.2.
On the same count and under the same terms, then `Cc1cc(C(=O)Nc2cc(Cl)cc(NS(C)(=O)=O)c2)cn1-c1ncc(N2CCC2)cn1` [Example 398], with 65.9.
On the same count and under the same terms, as for `Cc1cc(C(=O)Nc2cc(Cl)cc(NS(C)(=O)=O)c2)cn1-c1ccc(N2CC(F)(F)C2)cn1` [Example 399], the figure is 72.1; as for `Cc1cc(C(=O)Nc2cc(Cl)cc(NS(C)(=O)=O)c2)cn1-c1ncc(N2CCCC2=O)cn1` [Example 401], 70.3; as for `Cn1cc(C(=O)Nc2cc(Cl)cc(NS(C)(=O)=O)c2)cc1-c1ccc(N2CCCC2)cn1` [Example 402], 76.8.
Take `CCS(=O)(=O)Nc1cc(Cl)cc(NC(=O)c2cc(-c3ccc(N4CC(F)(F)C4)cn3)n(C)c2)c1` [Example 403]: the “DHX9 Biochemical Max Inhibition” value came out at 84.5.
The same measure, in the same setting: then `COC1CN(c2cnc(-n3cc(C(=O)Nc4cc(Cl)cc(NS(C)(=O)=O)c4)cc3C)nc2)C1` [Example 404], with 92; and `Cc1cc(C(=O)Nc2cc(Cl)cc(NS(C)(=O)=O)c2)cn1-c1ccc(N2CC3COCC3C2)cn1` (centres unmarked) [Example 405], with 93.9; and `Cc1cc(C(=O)Nc2cc(Cl)cc(NS(C)(=O)=O)c2)cn1-c1ncc(N2CC(F)(F)C2)cc1Cl` [Example 406], with 75.7.
With `Cc1cc(C(=O)Nc2cc(Cl)cc(NS(C)(=O)=O)c2)cn1-c1ncc(N2CC(F)(F)C2)cc1C(F)(F)F` [Example 407], the “DHX9 Biochemical Max Inhibition” value is reported as 105.
Same read-out and setting: as for `Cc1cc(C(=O)Nc2cc(Cl)cc(NS(C)(=O)=O)c2)cn1-c1ncc(N2CCC(F)(F)C2)cn1` [Example 409], the figure is 65.7; as for `Cc1cc(C(=O)Nc2cc(Cl)cc(NS(C)(=O)=O)c2)cn1-c1ccc(N2CCCC2=O)cn1` [Example 410], 69.3; as for `Cc1cc(C(=O)Nc2cc(Cl)cc(NS(C)(=O)=O)c2)cn1-c1ccc(N2CC3CC3C2)cn1` (centres unmarked) [Example 411], 74.2.
Still for that read-out and setting: then `Cc1cc(C(=O)Nc2cc(Cl)cc(NS(C)(=O)=O)c2)cn1-c1ncc(N2CCOCC2)cc1F` [Example 412], with 72.2.
Still for that read-out and setting: as for `Cc1cc(C(=O)Nc2cc(Cl)cc(NS(C)(=O)=O)c2)cn1-c1ncc(N2CC3(C2)CC(F)(F)C3)cn1` [Example 413], the figure is 64.5; as for `Cc1cc(C(=O)Nc2cc(Cl)cc(NS(C)(=O)=O)c2)cn1-c1ncc(N2CCC3(C2)CC3(F)F)cc1F` (centres unmarked) [Example 414], 58.3.
With `Cc1cc(C(=O)Nc2cc(Cl)cc(NS(C)(=O)=O)c2)cn1-c1ncc(N2CC(F)(F)C2)cc1C#N` [Example 415], the “DHX9 Biochemical Max Inhibition” value was determined as 99.9.
Still for that read-out and setting: as for `Cc1cc(C(=O)Nc2cc(Cl)cc(NS(C)(=O)=O)c2)cn1-c1ccc(N2CCOC2=O)cn1` [Example 416], the figure is 81.8; as for `Cc1cc(C(=O)Nc2cc(Cl)cc(NS(C)(=O)=O)c2)cn1-c1ncc(N2CCOC2=O)cn1` [Example 417], 70.1.
On the same count and under the same terms, then `Cc1cc(C(=O)Nc2cc(Cl)cc(NS(C)(=O)=O)c2)cn1-c1ncc(N2CC(F)(F)C2)cn1` [Example 418], with 70.25.
In the case of `Cc1cc(N2CC(F)(F)C2)cnc1-n1cc(C(=O)Nc2cc(Cl)cc(NS(C)(=O)=O)c2)cc1C` [Example 419], the “DHX9 Biochemical Max Inhibition” value came out at 78.6.
Take `Cc1cc(C(=O)Nc2cc(Cl)cc(NS(C)(=O)=O)c2)cn1-c1ncc(N2CC(F)(F)C2)cc1F` [Example 420]: the “DHX9 Biochemical Max Inhibition” value was found to be 95.
As to `COc1cc(N2CC(F)(F)C2)cnc1-n1cc(C(=O)Nc2cc(Cl)cc(NS(C)(=O)=O)c2)cc1C` [Example 421], the “DHX9 Biochemical Max Inhibition” value worked out at 81.6.
For the molecule `CCS(=O)(=O)Nc1cc(Cl)cc(NC(=O)c2cc(C)n(-c3ncc(N4CC(F)(F)C4)cn3)c2)c1` [Example 423], the “DHX9 Biochemical Max Inhibition” value is recorded as 74.2.
Still for that read-out and setting: then `CS(=O)(=O)Nc1cc(Cl)cc(NC(=O)c2cnn(C3CCCC3OCc3ccccc3)c2)c1` (centres unmarked) [Example 424], with 81.7.

The same test, now with this note: read-out: DHX9 Biochemical Inflection Point.
Turning to `Cc1cc(C(=O)Nc2cc(Cl)cc(NS(C)(=O)=O)c2)cn1-c1ccc(N2CCC2)cn1` [Example 397], the IC50 is 10.2 nM.
Still for that read-out and setting: then `Cc1cc(C(=O)Nc2cc(Cl)cc(NS(C)(=O)=O)c2)cn1-c1ncc(N2CCC2)cn1` [Example 398], with 8.8 nM.
Same read-out and setting: as for `Cc1cc(C(=O)Nc2cc(Cl)cc(NS(C)(=O)=O)c2)cn1-c1ccc(N2CC(F)(F)C2)cn1` [Example 399], the figure is 11.4 nM; as for `Cc1cc(C(=O)Nc2cc(Cl)cc(NS(C)(=O)=O)c2)cn1-c1ncc(N2CCCC2=O)cn1` [Example 401], 10.6 nM.
On the same count and under the same terms, as for `Cn1cc(C(=O)Nc2cc(Cl)cc(NS(C)(=O)=O)c2)cc1-c1ccc(N2CCCC2)cn1` [Example 402], the figure is 45.1 nM; as for `CCS(=O)(=O)Nc1cc(Cl)cc(NC(=O)c2cc(-c3ccc(N4CC(F)(F)C4)cn3)n(C)c2)c1` [Example 403], 186 nM.
Regarding `COC1CN(c2cnc(-n3cc(C(=O)Nc4cc(Cl)cc(NS(C)(=O)=O)c4)cc3C)nc2)C1` [Example 404], the IC50 turned out to be 84.5 nM.
Still for that read-out and setting: then `Cc1cc(C(=O)Nc2cc(Cl)cc(NS(C)(=O)=O)c2)cn1-c1ccc(N2CC3COCC3C2)cn1` (centres unmarked) [Example 405], with 5.2 nM; and `Cc1cc(C(=O)Nc2cc(Cl)cc(NS(C)(=O)=O)c2)cn1-c1ncc(N2CC(F)(F)C2)cc1Cl` [Example 406], with 55.1 nM; and `Cc1cc(C(=O)Nc2cc(Cl)cc(NS(C)(=O)=O)c2)cn1-c1ncc(N2CC(F)(F)C2)cc1C(F)(F)F` [Example 407], with 203 nM.
Regarding `Cc1cc(C(=O)Nc2cc(Cl)cc(NS(C)(=O)=O)c2)cn1-c1ncc(N2CCC(F)(F)C2)cn1` [Example 409], the IC50 was determined as 29.7 nM.
The same measure, in the same setting: then `Cc1cc(C(=O)Nc2cc(Cl)cc(NS(C)(=O)=O)c2)cn1-c1ccc(N2CCCC2=O)cn1` [Example 410], with 20.5 nM; and `Cc1cc(C(=O)Nc2cc(Cl)cc(NS(C)(=O)=O)c2)cn1-c1ccc(N2CC3CC3C2)cn1` (centres unmarked) [Example 411], with 41.6 nM; and `Cc1cc(C(=O)Nc2cc(Cl)cc(NS(C)(=O)=O)c2)cn1-c1ncc(N2CCOCC2)cc1F` [Example 412], with 10.5 nM.
On the same count and under the same terms, as for `Cc1cc(C(=O)Nc2cc(Cl)cc(NS(C)(=O)=O)c2)cn1-c1ncc(N2CC3(C2)CC(F)(F)C3)cn1` [Example 413], the figure is 13.3 nM.
`Cc1cc(C(=O)Nc2cc(Cl)cc(NS(C)(=O)=O)c2)cn1-c1ncc(N2CCC3(C2)CC3(F)F)cc1F` (centres unmarked) [Example 414]: the IC50 amounted to 50.6 nM.
The same measure, in the same setting: then `Cc1cc(C(=O)Nc2cc(Cl)cc(NS(C)(=O)=O)c2)cn1-c1ncc(N2CC(F)(F)C2)cc1C#N` [Example 415], with 15.4 nM; and `Cc1cc(C(=O)Nc2cc(Cl)cc(NS(C)(=O)=O)c2)cn1-c1ccc(N2CCOC2=O)cn1` [Example 416], with 13.5 nM; and `Cc1cc(C(=O)Nc2cc(Cl)cc(NS(C)(=O)=O)c2)cn1-c1ncc(N2CCOC2=O)cn1` [Example 417], with 33.1 nM.
The same measure, in the same setting: then `Cc1cc(C(=O)Nc2cc(Cl)cc(NS(C)(=O)=O)c2)cn1-c1ncc(N2CC(F)(F)C2)cn1` [Example 418], with 17 nM; and `Cc1cc(N2CC(F)(F)C2)cnc1-n1cc(C(=O)Nc2cc(Cl)cc(NS(C)(=O)=O)c2)cc1C` [Example 419], with 18.6 nM.
The same measure, in the same setting: then `Cc1cc(C(=O)Nc2cc(Cl)cc(NS(C)(=O)=O)c2)cn1-c1ncc(N2CC(F)(F)C2)cc1F` [Example 420], with 17.7 nM; and `COc1cc(N2CC(F)(F)C2)cnc1-n1cc(C(=O)Nc2cc(Cl)cc(NS(C)(=O)=O)c2)cc1C` [Example 421], with 10.8 nM; and `CCS(=O)(=O)Nc1cc(Cl)cc(NC(=O)c2cc(C)n(-c3ncc(N4CC(F)(F)C4)cn3)c2)c1` [Example 423], with 21.6 nM.
For the molecule `CS(=O)(=O)Nc1cc(Cl)cc(NC(=O)c2cnn(C3CCCC3OCc3ccccc3)c2)c1` (centres unmarked) [Example 424], the IC50 was found to be 5.1 nM.
